Experimental data published in article PMC7377239, “Cardiovascular Effects of Polychlorinated Biphenyls and Their Major Metabolites” (Environmental Health Perspectives, 2020).
Like-named read-outs stand apart in the source and are kept apart here.

Tested on: iCell cardiomyocytes (human iPSC-derived cardiomyocytes)
Experiment: Intracellular Ca2+ flux / beating parameters in iCell cardiomyocytes (FLIPR tetra), 90 min or 24 h
Format: cell-based
Settings: Homo sapiens, Cardiomyocyte, 0.00 µM = 100.00; for activity at 0.1 µM: 0.10 µM
Procedure, shortened: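 Gelatin-plated iCell cardiomyocytes (5,000/well) were dye-loaded for 2 h at 37 °C, then exposed for 90 min or 24 h to PCBs/metabolites (5× plates at 0.05–500 µM; 0.5% DMSO final) in triplicate. Ca2+ flux was read for 100 s at 8 Hz and 37 °C. Peak height, frequency, spacing CV and decay/rise ratio were vehicle-normalized and fitted with a four-parameter logistic model, with POD set at 1 SD of vehicle.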

[1] = 1.5 h, read-out: cm.amp.avg.90min
[2] = 1.5 h, read-out: cm.amp.cv.90min
[3] = 1.5 h, read-out: cm.decay.rise.90min
[4] = 1.5 h, read-out: cm.spacing.cv.90min
[5] = 24 h, read-out: cm.amp.avg.24hrs
[6] = 24 h, read-out: cm.amp.cv.24hrs
[7] = 24 h, read-out: cm.decay.rise.24hrs
[8] = 24 h, read-out: cm.spacing.cv.24hrs

Structure (SMILES): Oc1cc(Cl)cc(-c2cccc(Cl)c2)c1 [5-OH PCB 11]
- activity at 0.01 µM [1]: 101%
- activity at 0.01 µM [2]: 105%
- activity at 0.01 µM (1.5 h, read-out: cm.bpm.90min): 97.8%
- activity at 0.01 µM [3]: 102%
- activity at 0.01 µM [4]: 101%
- activity at 0.1 µM [1]: 102%
- activity at 0.1 µM [2]: 103%
- activity at 0.1 µM (1.5 h, read-out: cm.bpm.90min): 100%
- activity at 0.1 µM [3]: 98.1%
- activity at 0.1 µM [4]: 107%
- activity at 1 µM [1]: 104%
- activity at 1 µM [2]: 101%
- activity at 1 µM (1.5 h, read-out: cm.bpm.90min): 102%
- activity at 1 µM [3]: 98.3%
- activity at 1 µM [4]: 99.1%
- activity at 10 µM [1]: 94.2%
- activity at 10 µM [2]: 105%
- activity at 10 µM (1.5 h, read-out: cm.bpm.90min): 137%
- activity at 10 µM [3]: 92%
- activity at 10 µM [4]: 106%
- activity at 100 µM [1]: 0%
- activity at 100 µM [2]: 0%
- activity at 100 µM (1.5 h, read-out: cm.bpm.90min): 0%
- activity at 100 µM [3]: 0%
- activity at 100 µM [4]: 0%
- activity at 0.01 µM [5]: 128%
- activity at 0.01 µM [6]: 95.9%
- activity at 0.01 µM (24 h, read-out: cm.bpm.24hrs): 104%
- activity at 0.01 µM [7]: 94.3%
- activity at 0.01 µM [8]: 112%
- activity at 0.1 µM [5]: 123%
- activity at 0.1 µM [6]: 81.7%
- activity at 0.1 µM (24 h, read-out: cm.bpm.24hrs): 97.4%
- activity at 0.1 µM [7]: 98.8%
- activity at 0.1 µM [8]: 113%
- activity at 1 µM [5]: 151%
- activity at 1 µM [6]: 71%
- activity at 1 µM (24 h, read-out: cm.bpm.24hrs): 91.7%
- activity at 1 µM [7]: 100%
- activity at 1 µM [8]: 89.5%
- activity at 10 µM [5]: 126%
- activity at 10 µM [6]: 83.9%
- activity at 10 µM (24 h, read-out: cm.bpm.24hrs): 114%
- activity at 10 µM [7]: 104%
- activity at 10 µM [8]: 101%
- activity at 100 µM [5]: 0%
- activity at 100 µM [6]: 0%
- activity at 100 µM (24 h, read-out: cm.bpm.24hrs): 0%
- activity at 100 µM [7]: 0%
- activity at 100 µM [8]: 0%
